According to ChEMBL document CHEMBL3885861, “Open TG-GATES”:

Organism: Rattus norvegicus
Test: Open TG-GATES - Regimen: Daily Repeat
Type: toxicity, organism-based, Sprague-Dawley
Parameters: regimen Daily Repeat, gender Male, age 6 weeks
Conditions: in vivo, po, 0 mg/kg, route gavage, dose level Control; for APTT / Bas / Eos / Fbg / Hb / Ht / Lym / MCH / MCHC / MCV / Mono / Neu / PT / Plat / RBC / Ret / WBC: tissue Blood
[1] = 72 h, tissue Kidney, time 3 day
[2] = 72 h, tissue Plasma, time 3 day

Work on Clc1ccccc1CN1CCc2sccc2C1 [TICLOPIDINE] yielded a TERMINAL_BW (72 h, time 3 day) of 230.2 g, an APTT (72 h, time 3 day) of 20.4 s and a Bas (72 h, time 3 day) of 0.6%. The Eos (72 h, time 3 day) was 1%, the Fbg (72 h, time 3 day) was 211 mg/dL and the Hb (72 h, time 3 day) was 13.6 g/dL. For the same compound, the Ht (72 h, time 3 day) was 38.2%, the Lym (72 h, time 3 day) was 77.6% and the MCH (72 h, time 3 day) was 21.9 pg. For the same compound, the MCHC (72 h, time 3 day) was 35.8%, the MCV (72 h, time 3 day) was 61.3 fL and the Mono (72 h, time 3 day) was 3.2%. For the same compound, the Neu (72 h, time 3 day) was 17%, the PT (72 h, time 3 day) was 11.7 s and the Plat (72 h, time 3 day) was 127.8 x10_4/uL. For the same compound, the RBC (72 h, time 3 day) was 622.6 x10_4/ul, the Ret (72 h, time 3 day) was 6.2% and the WBC (72 h, time 3 day) was 129 x10_2/uL. It also gave a KIDNEY_L [1] of 1.1 g, a KIDNEY_R [1] of 1 g and a KIDNEY_TOTAL [1] of 2.1 g. The LIVER (72 h, tissue Liver, time 3 day) was 11.1 g, the ALP [2] was 1033.4 IU/L and the ALT [2] was 42.8 IU/L. For the same compound, the AST [2] was 70.2 IU/L, the BUN [2] was 17 mg/dL and the CRE [2] was 0.4 mg/dL. The DBIL [2] was 0.07 mg/dL, the GLC [2] was 205.4 mg/dL and the IP [2] was 8.6 mg/dL. The K [2] was 4.4 meq/L, the LDH [2] was 128.8 IU/L and the Na [2] was 141.6 meq/L. It also gave a PL [2] of 148.6 mg/dL, an RALB [2] of 3.4 g/dL and a TBIL [2] of 0.1 mg/dL. The TC [2] was 69.8 mg/dL, the TP [2] was 5.5 g/dL and the gamma-GTP [2] was 1.2 IU/L. The TERMINAL_BW ([…], time 7 day) was 252.6 g, the TERMINAL_BW ([…], time 14 day) was 313.6 g and the TERMINAL_BW ([…], time 28 day) was 400.8 g. The APTT ([…], time 7 day) was 20.7 s, the Bas ([…], time 7 day) was 1% and the Eos ([…], time 7 day) was 1%. The Fbg ([…], time 7 day) was 224.2 mg/dL, the Hb ([…], time 7 day) was 14 g/dL and the Ht ([…], time 7 day) was 38.4%. It also gave a Lym ([…], time 7 day) of 81.6%, an MCH ([…], time 7 day) of 21.3 pg and an MCHC ([…], time 7 day) of 36.4%. For the same compound, the MCV ([…], time 7 day) was 58.5 fL, the Mono ([…], time 7 day) was 2.4% and the Neu ([…], time 7 day) was 13.4%. The PT ([…], time 7 day) was 11.4 s, the Plat ([…], time 7 day) was 127 x10_4/uL and the RBC ([…], time 7 day) was 658 x10_4/ul. It also gave a Ret ([…], time 7 day) of 4.7%, a WBC ([…], time 7 day) of 103.5 x10_2/uL and an APTT ([…], time 14 day) of 20.6 s. The Bas ([…], time 14 day) was 1%, the Eos ([…], time 14 day) was 0.8% and the Fbg ([…], time 14 day) was 220.6 mg/dL. The Hb ([…], time 14 day) was 14.3 g/dL, the Ht ([…], time 14 day) was 39.5% and the Lym ([…], time 14 day) was 78.8%. For the same compound, the MCH ([…], time 14 day) was 21.1 pg, the MCHC ([…], time 14 day) was 36.2% and the MCV ([…], time 14 day) was 58.1 fL. It also gave a Mono ([…], time 14 day) of 2.8%, a Neu ([…], time 14 day) of 16% and a PT ([…], time 14 day) of 11.6 s. It also gave a Plat ([…], time 14 day) of 116.1 x10_4/uL, an RBC ([…], time 14 day) of 681.2 x10_4/ul and a Ret ([…], time 14 day) of 4.3%. It also gave a WBC ([…], time 14 day) of 121.8 x10_2/uL, an APTT ([…], time 28 day) of 18.1 s and a Bas ([…], time 28 day) of 0.8%. For the same compound, the Eos ([…], time 28 day) was 1%.
